Laboratory results taken from patent US4124369A, “Combating fungi and controlling plant growth with 1-amido-1-azolyl-2-hydroxy- or -keto-alkanes” (Bayer Aktiengesellschaft, priority 1976, dated 1978).

Tested on: Fusicladium dendriticum
Test: Fusicladium test (apple)/protective
Assay type: in vivo, Fusicladium dendriticum (apple scab) on apple seedlings
Settings: 0.0025% active compound; protective; 15 days after inoculation; 0% = no infection, 100% = completely infected
Description: fusicladium test (apple)/Protective Solvent: 4.7 parts by weight of acetone Emulsifier: 0.3 part by weight of alkylaryl polyglycol ether Water: 95 parts by weight. The amount of active compound required for the desired concentration of the active compound in the spray liquid was mixed with the stated amount of solvent, and the concentrate was diluted with the stated amount of water which contained with stated additions. Young apple seedlings in the 4-6 leaved stage were sprayed with the spray liquid until dripping wet. The plants remained in a greenhouse for 24 hours at 20° C. and at a relative atmospheric humidity of 70%. They were then inoculated with an aqueous conidium suspension of the apple scab causative organism (Fusicladium dendriticum) and incubated for 18 hours in a humidity chamber at 18°-20° C. and at a relative atmospheric humidity of 100%. The plants were then brought into a greenhouse for 14 days. 15 days after inoculation, the infection of the seedlings was determined. The ratings obtained were converted to percent infection. 0% meant no infection; 100% meant that the plants were completely infected. The active compounds, the concentrations of the active compounds and the results can be seen from the following table: […]

| Compound | Infection in % at an active compound concentration of 0.0025% |
| --- | --- |
| c1ccc(C(c2ccccc2)(c2ccccc2)n2cncn2)cc1 [A, triphenyl-1,2,4-triazol-1-yl-methane, reference compound] | 83% |
| CC(C)(C)C(=O)C(NC(=O)c1ccc(Cl)cc1)n1cncn1 (centres unmarked) [Compound 1, 1-(p-chlorobenzamido)-3,3-dimethyl-1-(1,2,4-triazol-1-yl) butan-2-one] | 50% |

Tested on: Podosphaera leucotricha
Test: Podosphaera test (apple)/protective
Assay type: in vivo
Settings: 0.00125% active compound; protective; 10 days after inoculation; 0% = no infection, 100% = completely infected
Description: podosphaera test (apple)/protective Solvent: 4.7 parts by weight of acetone Emulsifier: 0.3 part by weight of alkylaryl polyglycol ether Water: 95 parts by weight The amount of active compound required for the desired concentration of the active compound in the spray liquid was mixed with the stated amount of solvent, and the concentrate was diluted with the stated amount of water which contained the stated additions. Young apple seedlings in the 4-6 leaved stage were sprayed with the spray liquid until dripping wet. The plants remained in a greenhouse for 24 hours at 20° C. and at a relative atmospheric humidity of 70%. They were then inoculated by dusting with conidia of the apple powdery mildew causative organism (Podosphaera leucotricha) and placed in a greenhouse at a temperature of 21°-23° C. and at a relative atmospheric humidity of about 70%. 10 days after the inoculation, the infection of the seedlings was determined. The ratings obtained were converted to percent infection. 0% meant no infection: 100% meant that the plants were completely infected. The active compounds, the concentrations of the active compounds and the results can be seen from the following table: […]

| Compound | Infection in % at an active compound concentration of 0.00125% |
| --- | --- |
| c1ccc(C(c2ccccc2)(c2ccccc2)n2cncn2)cc1 [A, triphenyl-1,2,4-triazol-1-yl-methane, reference compound] | 85% |
| CC(C)(C)C(=O)C(NC(=O)c1ccc(Cl)cc1)n1cncn1 (centres unmarked) [Compound 1, 1-(p-chlorobenzamido)-3,3-dimethyl-1-(1,2,4-triazol-1-yl) butan-2-one] | 50% |

Tested on: Erysiphe graminis var. hordei
Test: Shoot treatment test/powdery mildew of cereals/protective
Assay type: in vivo, Erysiphe graminis var. hordei on barley (Amsel variety)
Settings: 0.01% by weight active compound in the spray liquor; protective; 6 days; 0% = no infection
Description: shoot treatment test/powdery mildew of cereals/protective (leaf-destructivemycosis)
To produce a suitable preparation of active compound, 0.25 part by weight of active compound was taken up in 25 parts by weight of dimethylformamide and 0.06 part by weight of emulsifier alkylarylpolyglycol ether and then 975 parts by weight of water were added. The concentration was diluted with water to the desired final concentration of the spray liquor.
To test for protective activity, single-leaved young barley plants of the Amsel variety were sprayed with the preparation of active compound until dew-moist. After drying, the barley plants were dusted with spores of Erysiphe graminis var. hordei.
After 6 days' dwell time of the plants at a temperature of 21°-22° C. and 80-90% atmospheric humidity the occurrence of mildew pustules on the plants was evaluated. The degree of infection was expressed as a percentage of the infection of the untreated control plants. 0% denoted no infection and 100% denoted that same degree of infection as in the case of the untreated control.
The active compounds, the concentrations of the active compounds in the spray liquor and degrees of infection can be seen from the table which follows: […]

| Compound | Infection in % of the untreated control |
| --- | --- |
| CC(C)(C)C(=O)C(NC(=O)COc1ccccc1)n1cncn1 (centres unmarked) | 32.5% |
| c1ccc(C(c2ccccc2)(c2ccccc2)n2cncn2)cc1 [drawing 13, reference compound] | 100.0% |
| CC(C)(C)C(=O)C(NC(=O)c1ccc(Cl)cc1)n1cncn1 (centres unmarked) [drawing 14] | 0.0% |

Same assay, conditions: 0.025% by weight active compound in the spray liquor; protective; 6 days; 0% = no infection

| Compound | Infection in % of the untreated control |
| --- | --- |
| CC(C)(C)C(=O)C(NC(=O)c1ccccc1)n1ccnc1 (centres unmarked) | 12.5% |
| CC(C)(C)C(=O)C(NC(=O)c1cc(Cl)ccc1Cl)n1cncn1 (centres unmarked) | 50.0% |
| CC(C)(C)C(=O)C(NC(=O)c1cc(Cl)ccc1Cl)n1ccnc1 (centres unmarked) | 21.3% |
| CC(C)(C)C(=O)NC(C(=O)C(C)(C)C)n1ccnc1 (centres unmarked) | 30.0% |
| c1ccc(C(c2ccccc2)(c2ccccc2)n2cncn2)cc1 [drawing 13, reference compound] | 100.0% |
| CC(C)(C)C(=O)C(NC(=O)c1ccccc1Cl)n1cncn1 (centres unmarked) [drawing 16] | 50.0% |
| CC(C)(C)C(=O)C(NC(=O)c1ccccc1)n1cncn1 (centres unmarked) [drawing 18] | 500% |
| CC(C)(C)C(O)C(NC(=O)c1ccccc1Cl)n1ccnc1 (centres unmarked) [drawing 19] | 28.8% |
| CC(C)(C)C(=O)C(NC(=O)c1cccc(Cl)c1)n1ccnc1 (centres unmarked) [drawing 20] | 28.8% |
| CC(C)(C)C(O)C(NC(=O)c1cc(Cl)ccc1Cl)n1cncn1 (centres unmarked) [drawing 23] | 40.0% |
| CC(C)(C)C(=O)C(NC(=O)Cc1ccccc1)n1cncn1 (centres unmarked) [drawing 24] | 40.0% |
| CC(C)(C)C(O)C(NC(=O)c1ccccc1)n1cncn1 (centres unmarked) [drawing 25] | 40.0% |

Tested on: Erysiphe graminis var. hordei
Test: Powdery mildew of barley test/systemic (seed treatment)
Assay type: in vivo, Erysiphe graminis var. hordei on barley
Settings: 25% by weight active compound in the dressing, 10 g dressing/kg of seed, systemic, 0% = no infection
Description: powdery mildew of barley (Erysiphe graminis var.hordei)/systemic (fungal disease of cereal shoots) The active compounds were used as pulverulent seed treatment agents. They were prepared by extending the particular active compound with a mixture of equal parts by weight of talc and kieselguhr to give a finely pulverulent mixture of the desired concentration of active compound. For the treatment of seed, barley seed was shaken with the extended active compound in a closed glass bottle. The seed was sown at the rate of 3 × 12 grains in flowerpots, 2 cm deep in a mixture of one part by volume of Fruhstorfer standard soil and one part by volume of quartz sand. The germination and emergence took place under favorable conditions in a greenhouse. 7 days after sowing, when the barley plants have developed their first leaf, they were dusted with fresh spores of Erysiphe graminis var. hordei and grown on at 21°-22° C. and 80-90% relative atmospheric humidity and 16 hours' exposure to light. The typical mildew pustules formed on the leaves over the course of 6 days. The degree of infection was expressed as a percentage of the infection of the untreated control plants. Thus, 0% denoted no infection and 100% denoted the same degree of infection as in the case of the untreated control. […] The active compounds and concentrations of active compound in the seed treatment agent, as well as the amount used of the latter, and the percentage infection with mildew can be seen from the table which follows: […]

| Compound | Infection in % of the untreated control |
| --- | --- |
| CC(C)(C)C(=O)C(NC(=O)c1ccccc1Cl)n1ccnc1 (centres unmarked) | 55.0% |
| CC(C)(C)C(=O)C(NC(=O)Cc1ccccc1)n1ccnc1 (centres unmarked) | 50.0% |
| CC(C)(C)C(=O)NC(C(=O)C(C)(C)C)n1cncn1 (centres unmarked) | 25.0% |
| c1ccc(C(c2ccccc2)(c2ccccc2)n2cncn2)cc1 [drawing 27, reference compound] | 88.8% |
| CC(C)(C)C(=O)C(NC(=O)c1ccccc1Cl)n1cncn1 (centres unmarked) [drawing 29] | 0.0% |
| CC(C)(C)C(=O)C(NC(=O)c1ccccc1)n1cncn1 (centres unmarked) [drawing 30] | 0.0% |
| CC(C)(C)C(O)C(NC(=O)c1ccccc1Cl)n1ccnc1 (centres unmarked) [drawing 31] | 58.8% |
| CC(C)(C)C(=O)C(NC(=O)c1cccc(Cl)c1)n1ccnc1 (centres unmarked) [drawing 32] | 50.0% |
| CC(C)(C)C(O)C(NC(=O)c1cc(Cl)ccc1Cl)n1cncn1 (centres unmarked) [drawing 33] | 25.0% |
| CC(C)(C)C(=O)C(NC(=O)Cc1ccccc1)n1cncn1 (centres unmarked) [drawing 34] | 0.0% |
| CC(C)(C)C(O)C(NC(=O)c1ccccc1)n1cncn1 (centres unmarked) [drawing 35] | 17.5% |

Tested on: soya bean plants
Test: Influence on growth/soya beans
Assay type: in vivo
Settings: 0.05%; footnote *
Excerpt: influence on growth/soya beans
(§1) Solvent: 10 parts by weight of methanol
(§2) Emulsifier: 2 parts by weight of polyoxyethylene sorbitan monolaurate
To prepare a suitable preparation of active compound, 1 part by weight of active compound was mixed with the stated amounts of solvent and emulsifier and the mixture was made up to the desired concentration with water.
Young soya bean plants, in the stage in which the first secondary leaves had unfolded, were sprayed with the preparation of active compound until dripping wet. After 3 weeks, the additional growth was measured and the inhibition of growth in % of the additional growth of the control plants was calculated. 0% denoted growth corresponding to that of the control plants. Positive values characterized promotion of growth compared to the control plants while negative values corrrespondingly indicated an inhibition of growth.
The active compounds, concentrations of the active compounds and results can be seen from the table which follows: […]

| Compound | Influence on growth, note on leaves |
| --- | --- |
| CC(C)(C)C(=O)C(NC(=O)COc1ccc(Cl)cc1Cl)n1ccnc1 (centres unmarked) [drawing 38] | dark green leaves |

Tested on: barley plants
Test: Inhibition of growth/barley
Assay type: in vivo
Settings: 0.05%; 100% = growth stopped, 0% = growth of untreated control
Excerpt: Inhibition of growth/barley
as §1, §2
To prepare a suitable preparation of active compound, 1 part by weight of active compound was mixed with the stated amount of solvent and emulsifier and the mixture was made up to the desired concentration with water.
Young barley plants, in the 2-leaf stage, were sprayed with the preparation of active compound until dripping wet. After the untreated control plants had reached a growth height of about 60 cm, the additional growth of all the plants was measured and the inhibition of growth in % of the additional growth of the control plants was calculated. 100% meant that growth had stopped and 0% denoted a growth corresponding to that of the untreated control plants.
The active compounds, concentrations of the active compounds and results can be seen from the table which follows.

| Compound | Inhibition of growth in % |
| --- | --- |
| CC(C)(C)C(=O)C(NC(=O)COc1ccc(Cl)cc1Cl)n1ccnc1 (centres unmarked) [drawing 41] | 45% |

Tested on: tobacco plants
Test: Inhibition of the growth of side shoots of tobacco
Assay type: in vivo
Settings: 0.2%; after 3 weeks; 100% = absence of side shoots
Excerpt: inhibition of the growth of side shoots of tobacco
as §1
Emulsifier: 2 parts by weight of polyoxyethylene-sorbitan monolaurate
To prepare a suitable preparation of active compound, 1 parts by weight of active compound was mixed with the stated amounts of solvent and emulsifier and the mixture was made up to the desired concentration with water.
The shoot tips of about 50 cm high tobacco plants were broken off. On the following day, the plants were sprayed with the preparations of active compound until dripping wet. After 3 weeks, the side shoots which had formed during this time were broken off. All the side shoots of one treatment were weighed. The weight of the side shoots of the treated plants was compared with the weight of the side shoots of the untreated control plant. 100% inhibition denoted the absence of side shoots and 0% denoted a growth of side shoots which correspond to that of the control plants.
The active compounds, the concentrations of the active compounds and results can be seen from the table which follows: […]

| Compound | Inhibition in % (growth of side shoots) |
| --- | --- |
| CC(C)(C)C(=O)C(NC(=O)COc1ccc(Cl)cc1Cl)n1ccnc1 (centres unmarked) [drawing 42] | 97% |

Tested on: fungi
Test: not given
Settings: German Offenlegungsschrift 1,795,249; cited from earlier work

| Compound | fungicidal activity (prior art) |
| --- | --- |
| c1ccc(C(c2ccccc2)(c2ccccc2)n2cncn2)cc1 [A, triphenyl-1,2,4-triazol-1-yl-methane, reference compound] | good fungicidal activity |

Same assay, conditions: especially low amounts and low concentrations; cited from earlier work

| Compound | action at low amounts and low concentrations (prior art) |
| --- | --- |
| c1ccc(C(c2ccccc2)(c2ccccc2)n2cncn2)cc1 [A, triphenyl-1,2,4-triazol-1-yl-methane, reference compound] | not always entirely satisfactory |
